Measured values reported in patent publication US10710986B2, “PD-1/PD-L1 inhibitors” (Gilead Sciences, Inc., priority 2018, dated 2020).

biological target: PD-1/PD-L1 (Homo sapiens (Human), UniProt Q9NZQ7); experiment: PD-1/PD-L1 biochemical protein-protein interaction assay (ALPHA); details: 0.3 nM His tagged PD-L1, 2.5 nM biotinylated Fc-PD-1, 60 minutes at 25° C., read-out: IC50 PD-L1-PD1
Sequence (Q9NZQ7 19-238): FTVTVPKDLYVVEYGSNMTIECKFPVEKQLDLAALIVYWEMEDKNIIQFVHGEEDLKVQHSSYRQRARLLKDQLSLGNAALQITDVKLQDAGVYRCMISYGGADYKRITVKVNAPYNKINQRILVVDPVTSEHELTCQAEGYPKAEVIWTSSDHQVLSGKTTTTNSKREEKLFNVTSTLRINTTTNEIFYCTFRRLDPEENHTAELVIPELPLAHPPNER

Row | SMILES | IC50 [nM]
1 | COc1nc(-c2cccc(-c3cccc(-c4cnc(CNC[C@@H]5CCC(=O)N5)c(OC)n4)c3Cl)c2Cl)cnc1CNCC1CS(=O)(=O)C1 [compound 311] | 0.24
2 | COc1nc(-c2cccc(-c3cccc(-c4cnc(CN5C[C@H]6CC(=O)N[C@H]6C5)c(OC)n4)c3Cl)c2Cl)cnc1CNC[C@@H]1CCC(=O)N1 [compound 312] | 0.295
3 | COc1nc(-c2cccc(-c3cccc(-c4cnc(CNC[C@@H]5CCC(=O)N5)c(OC)n4)c3Cl)c2Cl)cnc1CNCC[C@H]1CCC(=O)N1 [compound 314] | 0.142
4 | COc1nc(-c2cccc(-c3cccc(-c4cnc([C@@H](C)N)c(OC)n4)c3Cl)c2Cl)cnc1CNC[C@@H]1CCC(=O)N1 [compound 315] | 0.18
5 | COc1nc(-c2cccc(-c3cccc(-c4cnc([C@H](C)N)c(OC)n4)c3Cl)c2Cl)cnc1CNC[C@@H]1CCC(=O)N1 [compound 316] | 0.17
6 | COc1nc(-c2cccc(-c3cccc(-c4cnc(CN[C@@H](C)[C@H]5CCC(=O)N5)c(OC)n4)c3Cl)c2Cl)cnc1CN[C@@H](C)[C@H]1CCC(=O)N1 [compound 317] | 0.22
7 | COc1nc(-c2cccc(-c3cccc(-c4cnc(CNC[C@@H]5CCC(=O)N5)c(OC)n4)c3Cl)c2Cl)cnc1CN [compound 318] | 0.15
8 | CNc1nc(-c2cccc(-c3cccc(-c4cnc(CN(C)C[C@@H]5CCC(=O)N5)c(NC)n4)c3Cl)c2Cl)cnc1CN(C)C[C@@H]1CCC(=O)N1 [compound 319] | 3.87
9 | CNc1nc(-c2cccc(-c3cccc(-c4cnc(CNC[C@H]5CCC(=O)N5)c(NC)n4)c3Cl)c2Cl)cnc1CNC[C@H]1CCC(=O)N1 [compound 320] | 3.72
10 | COc1nc(-c2cccc(-c3cccc(-c4cnc(CN[C@@H]5CCN(S(C)(=O)=O)C5)c(OC)n4)c3Cl)c2Cl)cnc1CN[C@@H]1CCN(S(C)(=O)=O)C1 [compound 321] | 0.46
11 | COc1nc(-c2cccc(-c3cccc(-c4cnc(CN(C)C[C@@H]5CCC(=O)N5)c(OC)n4)c3Cl)c2Cl)cnc1CN(C)CCO [compound 322] | 0.23
12 | COc1nc(-c2cccc(-c3cccc(-c4cnc(CN(C)CCO)c(OC)n4)c3Cl)c2Cl)cnc1CNC[C@@H]1CCC(=O)N1 [compound 323] | 0.12
13 | COc1nc(-c2cccc(-c3cccc(-c4cnc(CNC[C@H]5NC(=O)[C@@H]6C[C@H]56)c(OC)n4)c3Cl)c2Cl)cnc1CNC[C@H]1NC(=O)[C@@H]2C[C@H]12 [compound 324] | 0.358
14 | COc1nc(-c2cccc(-c3cccc(-c4cnc(CN(Cc5ccccc5)C[C@@H]5CCC(=O)N5)c(OC)n4)c3Cl)c2Cl)cnc1CNC[C@@H]1CCC(=O)N1 [compound 325] | 1.86
15 | COc1nc(-c2cccc(-c3cccc(-c4cnc(CNC[C@@H]5C[C@@H](C)C(=O)N5)c(OC)n4)c3Cl)c2Cl)cnc1CNC[C@@H]1C[C@@H](C)C(=O)N1 [compound 326] | 0.18
16 | COc1nc(-c2cccc(-c3cccc(-c4cnc(CN(C)C[C@@H]5CCC(=O)N5)c(OC)n4)c3Cl)c2Cl)cnc1CN(C)C[C@@H]1CCC(=O)N1 [compound 327] | 0.238
17 | COc1nc(-c2cccc(-c3cccc(-c4cnc(CN(CC5CC5)C[C@@H]5CCC(=O)N5)c(OC)n4)c3Cl)c2Cl)cnc1CN(CC1CC1)C[C@@H]1CCC(=O)N1 [compound 328] | 4.04
18 | COc1nc(-c2cccc(-c3cccc(-c4cnc(CN(CC5CC5)C[C@@H]5CCC(=O)N5)c(OC)n4)c3Cl)c2Cl)cnc1CNC[C@@H]1CCC(=O)N1 [compound 329] | 0.955
19 | COc1nc(-c2cccc(-c3cccc(-c4cnc(CNC[C@@H]5C[C@@H](CC(F)(F)F)C(=O)N5)c(OC)n4)c3Cl)c2Cl)cnc1CNC[C@@H]1C[C@@H](CC(F)(F)F)C(=O)N1 [compound 330] | 5.68
20 | COc1nc(-c2cccc(-c3cccc(-c4cnc(CNC[C@@H]5CC6(CC6)C(=O)N5)c(OC)n4)c3Cl)c2Cl)cnc1CNC[C@@H]1CC2(CC2)C(=O)N1 [compound 331] | 0.669
21 | COc1nc(-c2cccc(-c3cccc(-c4cnc(CN5[C@@H](C)COC[C@@H]5C)c(OC)n4)c3Cl)c2Cl)cnc1CNC[C@@H]1CCC(=O)N1 [compound 332] | 0.743
